Data on 13 compounds can be found in paper PMC9124820, “In vitro evaluation of fenfluramine and norfenfluramine as victims of drug interactions” (Pharmacology Research & Perspectives, 2022).

As usually defined, the inhibition is the percentage by which the read-out fell short of the control.

Counter-ions that a name gives are not always drawn.

Series [1] can be described thus: Metabolic stability and metabolite identity, rat intestinal S9 fractions. It counts as in vitro ADME. Particulars: FFA incubation, LC-MS/MS; X = identified. The method, then:
LC‐MS/MS analyses to assess metabolic stability and identify the transporter substrate were performed using an API 4000 QTRAP mass spectrometer (SCIEX, Framingham, MA) with electrospray ionization in positive mode. Chromatography was performed using an Atlantis dC18 analytical column (100 × 2.1 mm, 5 µm; Waters Corporation, Milford, MA). Mobile phases were 0.2% v/v formic acid in water and 0.2% v/v formic acid in acetonitrile. For metabolic stability experiments, FFA and metabolites were eluted at a flow rate of 0.6 mL/min, with a linear gradient of 20%−80% acetonitrile from 0.30−2.0 min. For transporter substrate experiments, the gradient was slightly modified to achieve suitable chromatography. The mass transitions monitored were 232.0 > 159.0 for FFA and 348.0 > 330.0 for 1ʹ‐OH‐midazolam‐d4 internal standard. […]
FFA (1 or 10 µM) was incubated with liver and intestinal S9 fractions (2 mg protein/mL) at 37 ± 1°C in 0.2‐mL incubation mixtures containing potassium phosphate buffer (50 mM, pH 7.4), magnesium chloride (MgCl2) (3 mM), and EDTA (1 mM, pH 7.4), in the presence or absence of a three‐component cofactor mixture (NADPH‐generating system, uridine diphosphate glucuronic acid (UDPGA) [8 mM], and 3’‐phosphoadenosine 5’‐phosphosulfate [0.5 mM]). […] Supernatant fractions were analyzed by LC‐MS/MS.
To characterize substrate loss and metabolic stability, duplicate samples were analyzed by LC‐MS/MS to determine the change in substrate concentration over the incubation period. The rate constant of elimination (kel, min^−1) was determined from the time course of substrate loss based on single exponential decay (A(t)=A0(‐kelt)) . Half‐life in vitro was determined by the following equation: t1/2 = 0.693/kel. The in vitro intrinsic clearance (CLint) was calculated from the rate constant of elimination as follows: CLintμL/min/mgprotein=kelmin^‐1×incubationvolume(μL)/mgproteinperincubation.
Percent loss of substrate was determined by normalizing the mean analyte peak‐area ratio at each time point to the average of four replicates at the 0‐min time point (100%).

The next series addresses CYP2C19 (Homo sapiens, UniProt P33261). The series is described as follows: in vitro. Particulars: microsomes. As for the experimental part:
(§1) To determine the metabolic role of individual CYP450 enzymes more quantitatively, FFA (1 μM) or nFFA (0.1 μM) was manually incubated in duplicate with human liver microsomes (1 mg protein/mL) for 60 min (FFA), or for 0 and 120 min (nFFA), in the presence of direct‐acting or metabolism‐dependent chemical inhibitors. […] Solvent controls were processed in parallel with each inhibitor. Under the conditions described above, incubations were conducted and reactions terminated at 0 or 120 min. Metabolite formation for chemical inhibitors was normalized over time to metabolite formation in the respective solvent controls for each inhibitor. Assays were conducted in duplicate due to the low biological and technical variability expected in this assay; statistical analysis was not possible with duplicate samples.

In another series the target is T1, CYP1A2 (Homo sapiens, UniProt P05177).
T1 construct: manually incubated in duplicate with human liver microsomes (1 mg protein/mL); tissue Sekisui XenoTech, LLC; host or cells: pooled human liver microsomes (200 donors)
T1 sequence (P05177 1-516): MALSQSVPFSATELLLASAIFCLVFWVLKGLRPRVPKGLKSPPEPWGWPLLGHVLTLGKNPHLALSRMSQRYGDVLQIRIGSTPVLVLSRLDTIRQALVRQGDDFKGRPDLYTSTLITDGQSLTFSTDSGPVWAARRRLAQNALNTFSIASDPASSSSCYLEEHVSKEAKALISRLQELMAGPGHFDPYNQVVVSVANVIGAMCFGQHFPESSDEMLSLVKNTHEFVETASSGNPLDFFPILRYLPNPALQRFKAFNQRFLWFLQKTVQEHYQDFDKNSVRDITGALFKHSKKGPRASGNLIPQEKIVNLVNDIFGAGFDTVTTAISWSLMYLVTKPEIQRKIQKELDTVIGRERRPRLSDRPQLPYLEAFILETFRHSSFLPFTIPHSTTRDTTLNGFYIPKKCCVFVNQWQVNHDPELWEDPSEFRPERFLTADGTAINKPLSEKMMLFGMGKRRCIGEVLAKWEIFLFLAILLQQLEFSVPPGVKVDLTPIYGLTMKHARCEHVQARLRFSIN
The series is described as follows: Chemical inhibition of FFA metabolism in human liver microsomes, CYP1A2. The class given is in vitro ADME. As to conditions: probe FFA (1 µM), demethylation to nFFA, inhibitor 10 µM, metabolism-dependent, read-out: Reduction in FFA demethylation (percent inhibition by a selective inhibitor). As for the experimental part: as §1
(Liver microsomes are vesicles of endoplasmic reticulum, rich in cytochrome P450 enzymes.)

For a further series, the system named is CYP3A4/5. As to conditions: inhibitor 0.1, 0.5, 1 µM, direct-acting; FFA 1 μM, human liver microsomes. The method, then:
as §1

The target in a further series is T2, CYP2B6 (Homo sapiens, UniProt P20813).
T2 construct: manually incubated in duplicate with human liver microsomes (1 mg protein/mL); tissue Sekisui XenoTech, LLC; host or cells: pooled human liver microsomes (200 donors)
T2 sequence (P20813 1-491): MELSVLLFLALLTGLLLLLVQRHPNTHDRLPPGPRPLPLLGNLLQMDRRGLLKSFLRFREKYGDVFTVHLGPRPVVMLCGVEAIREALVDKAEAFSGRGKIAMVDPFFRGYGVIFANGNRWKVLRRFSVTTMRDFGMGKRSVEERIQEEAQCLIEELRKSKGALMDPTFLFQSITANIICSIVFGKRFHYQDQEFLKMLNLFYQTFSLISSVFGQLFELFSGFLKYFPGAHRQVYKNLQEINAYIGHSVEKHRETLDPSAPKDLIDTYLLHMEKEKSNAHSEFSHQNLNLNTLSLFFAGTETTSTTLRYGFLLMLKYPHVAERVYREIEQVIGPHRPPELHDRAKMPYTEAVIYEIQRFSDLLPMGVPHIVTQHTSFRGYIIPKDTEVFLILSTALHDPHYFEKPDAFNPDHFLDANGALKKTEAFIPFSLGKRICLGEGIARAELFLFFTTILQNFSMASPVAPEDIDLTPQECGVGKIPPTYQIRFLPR
The series is described as follows: Chemical inhibition of FFA metabolism in human liver microsomes, CYP2B6. The class given is in vitro ADME. As to conditions: probe FFA (1 µM), demethylation to nFFA, inhibitor 30 µM, metabolism-dependent, read-out: Reduction in FFA demethylation (percent inhibition by a selective inhibitor). As for the experimental part: as §1

The target in a further series is CYP2D6 (Homo sapiens, UniProt P10635). The series is described as follows: in vitro. Particulars: microsomes. The method, then: as §1
Sequence of CYP2D6 (P10635 whole entry): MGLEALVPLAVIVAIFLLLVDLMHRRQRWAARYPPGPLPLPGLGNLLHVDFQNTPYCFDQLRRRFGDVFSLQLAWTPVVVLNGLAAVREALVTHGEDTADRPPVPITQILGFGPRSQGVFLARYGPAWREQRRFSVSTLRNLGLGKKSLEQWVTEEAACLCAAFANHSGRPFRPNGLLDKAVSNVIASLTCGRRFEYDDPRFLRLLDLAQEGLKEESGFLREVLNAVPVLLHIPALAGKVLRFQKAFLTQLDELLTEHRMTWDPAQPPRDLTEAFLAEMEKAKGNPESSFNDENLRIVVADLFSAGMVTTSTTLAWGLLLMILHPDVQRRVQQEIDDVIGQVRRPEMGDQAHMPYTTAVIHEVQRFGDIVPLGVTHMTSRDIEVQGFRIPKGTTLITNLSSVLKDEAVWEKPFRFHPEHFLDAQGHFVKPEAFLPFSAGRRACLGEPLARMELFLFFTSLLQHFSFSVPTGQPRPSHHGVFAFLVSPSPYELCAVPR
The target of the next series is T3, CYP2C9 (Homo sapiens, UniProt P11712).
T3 construct: manually incubated in duplicate with human liver microsomes (1 mg protein/mL); tissue Sekisui XenoTech, LLC; host or cells: pooled human liver microsomes (200 donors)
T3 sequence (P11712 whole entry): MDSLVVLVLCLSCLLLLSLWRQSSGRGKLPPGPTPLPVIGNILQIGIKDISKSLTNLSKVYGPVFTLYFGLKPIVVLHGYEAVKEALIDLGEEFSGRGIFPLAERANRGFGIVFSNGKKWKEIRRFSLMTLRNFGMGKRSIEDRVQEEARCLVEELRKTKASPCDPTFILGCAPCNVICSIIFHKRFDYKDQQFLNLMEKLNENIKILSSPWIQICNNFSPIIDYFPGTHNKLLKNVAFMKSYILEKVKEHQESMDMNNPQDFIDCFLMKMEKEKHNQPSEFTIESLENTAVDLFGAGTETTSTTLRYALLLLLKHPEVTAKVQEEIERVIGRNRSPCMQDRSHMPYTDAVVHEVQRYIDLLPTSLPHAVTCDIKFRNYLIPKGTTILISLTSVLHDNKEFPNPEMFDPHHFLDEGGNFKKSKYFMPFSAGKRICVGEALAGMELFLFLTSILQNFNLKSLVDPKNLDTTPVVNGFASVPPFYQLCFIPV
Description: Chemical inhibition of FFA metabolism in human liver microsomes, CYP2C9. The class given is in vitro ADME. Particulars: inhibitor 20 µM, metabolism-dependent. The method, then:
as §1

Another series deals with T4, BCRP (Homo sapiens, UniProt Q9UNQ0).
T4 sequence (Q9UNQ0 1-655): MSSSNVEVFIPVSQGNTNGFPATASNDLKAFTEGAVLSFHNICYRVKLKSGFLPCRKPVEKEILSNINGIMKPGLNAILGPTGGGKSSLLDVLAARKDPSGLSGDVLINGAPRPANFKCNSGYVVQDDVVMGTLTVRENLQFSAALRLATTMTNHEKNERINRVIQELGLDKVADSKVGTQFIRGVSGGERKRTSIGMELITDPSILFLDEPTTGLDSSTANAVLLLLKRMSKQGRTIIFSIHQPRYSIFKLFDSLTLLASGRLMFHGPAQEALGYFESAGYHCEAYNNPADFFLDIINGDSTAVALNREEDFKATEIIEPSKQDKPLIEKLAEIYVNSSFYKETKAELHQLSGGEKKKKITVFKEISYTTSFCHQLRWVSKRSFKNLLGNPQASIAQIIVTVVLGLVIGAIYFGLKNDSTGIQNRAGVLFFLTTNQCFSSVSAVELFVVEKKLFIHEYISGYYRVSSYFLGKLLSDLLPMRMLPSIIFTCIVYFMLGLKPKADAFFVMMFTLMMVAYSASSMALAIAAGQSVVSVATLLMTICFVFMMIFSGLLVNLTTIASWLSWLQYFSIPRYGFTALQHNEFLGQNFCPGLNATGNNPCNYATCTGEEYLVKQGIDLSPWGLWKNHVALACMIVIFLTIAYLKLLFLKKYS
Particulars: cited from earlier work.

The target in a further series is P‐gp (Homo sapiens, UniProt P08183). Particulars: cited from earlier work.
Sequence of P‐gp (P08183 whole entry): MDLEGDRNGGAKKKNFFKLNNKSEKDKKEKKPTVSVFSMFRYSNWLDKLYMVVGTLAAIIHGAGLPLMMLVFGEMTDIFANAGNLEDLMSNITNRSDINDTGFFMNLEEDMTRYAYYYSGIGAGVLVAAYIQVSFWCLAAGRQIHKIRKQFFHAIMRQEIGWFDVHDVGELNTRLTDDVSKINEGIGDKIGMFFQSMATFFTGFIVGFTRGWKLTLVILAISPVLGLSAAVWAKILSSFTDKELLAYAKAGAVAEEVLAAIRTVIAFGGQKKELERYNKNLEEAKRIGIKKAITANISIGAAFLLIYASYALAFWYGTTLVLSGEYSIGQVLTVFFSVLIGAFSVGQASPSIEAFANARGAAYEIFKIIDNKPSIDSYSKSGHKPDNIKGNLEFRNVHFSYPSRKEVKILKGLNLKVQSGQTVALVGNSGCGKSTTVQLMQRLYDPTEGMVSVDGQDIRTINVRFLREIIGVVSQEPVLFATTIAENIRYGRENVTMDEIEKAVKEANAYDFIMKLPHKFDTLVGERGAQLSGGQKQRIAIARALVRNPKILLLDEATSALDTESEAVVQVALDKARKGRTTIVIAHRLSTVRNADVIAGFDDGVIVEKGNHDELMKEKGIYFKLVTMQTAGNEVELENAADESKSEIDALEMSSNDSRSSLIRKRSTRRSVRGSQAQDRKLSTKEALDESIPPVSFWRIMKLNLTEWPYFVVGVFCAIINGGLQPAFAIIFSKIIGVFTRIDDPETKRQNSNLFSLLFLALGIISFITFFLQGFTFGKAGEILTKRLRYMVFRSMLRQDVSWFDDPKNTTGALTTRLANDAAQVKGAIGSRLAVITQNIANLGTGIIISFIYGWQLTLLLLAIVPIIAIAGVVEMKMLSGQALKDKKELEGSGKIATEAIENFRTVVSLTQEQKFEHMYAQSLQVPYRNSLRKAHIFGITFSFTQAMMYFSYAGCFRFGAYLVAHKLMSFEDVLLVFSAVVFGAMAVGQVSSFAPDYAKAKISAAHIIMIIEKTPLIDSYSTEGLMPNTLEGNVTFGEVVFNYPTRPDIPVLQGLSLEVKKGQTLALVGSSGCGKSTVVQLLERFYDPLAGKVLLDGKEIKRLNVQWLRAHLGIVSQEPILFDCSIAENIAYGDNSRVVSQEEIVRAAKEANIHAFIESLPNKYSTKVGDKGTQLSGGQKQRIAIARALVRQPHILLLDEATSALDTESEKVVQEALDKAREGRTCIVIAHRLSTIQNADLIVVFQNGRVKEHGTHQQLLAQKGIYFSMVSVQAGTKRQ

Sequence of CYP2C19 (P33261 whole entry): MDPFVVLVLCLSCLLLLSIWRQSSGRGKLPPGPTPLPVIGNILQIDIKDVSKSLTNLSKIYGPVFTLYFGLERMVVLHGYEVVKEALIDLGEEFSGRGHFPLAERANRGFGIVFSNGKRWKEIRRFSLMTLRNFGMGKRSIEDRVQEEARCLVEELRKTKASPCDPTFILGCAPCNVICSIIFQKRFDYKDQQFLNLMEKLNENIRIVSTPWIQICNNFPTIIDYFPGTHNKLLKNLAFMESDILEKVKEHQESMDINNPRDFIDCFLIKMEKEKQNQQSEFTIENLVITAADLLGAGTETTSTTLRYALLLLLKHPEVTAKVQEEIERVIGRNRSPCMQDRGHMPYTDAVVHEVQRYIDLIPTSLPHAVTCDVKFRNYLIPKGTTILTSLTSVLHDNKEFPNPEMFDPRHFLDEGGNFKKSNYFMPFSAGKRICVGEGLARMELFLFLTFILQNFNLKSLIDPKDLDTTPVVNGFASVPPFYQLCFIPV

`CC(Cc1cccc(C(F)(F)F)c1)NO` (centres unmarked) [C2]: the “identified in Intestinal S9 fractions, Rat” value in [1] is “trace”.
For `COc1ccc2nc([S@@+]([O-])Cc3ncc(C)c(OC)c3C)[nH]c2c1` [Esomeprazole, esomeprazole], the “Reduction in FFA demethylation (percent inhibition by a selective inhibitor)” value on CYP2C19 (60 min, 10 µM) is listed as 8%. The compound further showed an inhibition at 60 min, 10 µM at CYP2C19 (Reduction in FFA demethylation (percent inhibition by a selective inhibitor)) of less than 15%.
Turning to `Cc1nc2c([nH]1)c(=O)n(C)c(=O)n2Cc1ccco1` [Furafylline, furafylline], the inhibition at 60 min, 10 µM at CYP1A2 is 32%.
Turning to `CC(=O)N1CCN(c2ccc(OCC3COC(Cn4ccnc4)(c4ccc(Cl)cc4Cl)O3)cc2)CC1` (centres unmarked) [Ketoconazole, ketoconazole], the “Reduction in FFA demethylation (percent inhibition by a selective inhibitor)” value in the series on CYP3A4/5 is listed as “None”.
Turning to `c1ccc(C2(N3CCCCC3)CCCCC2)cc1` [Phencyclidine, phencyclidine hydrochloride], the inhibition at 60 min, 30 µM at CYP2B6 came to 42%.
With `C=C[C@H]1C[N@@]2CC[C@H]1C[C@@H]2[C@@H](O)c1ccnc2ccc(OC)cc12` [Quinidine, quinidine], at CYP2D6, the inhibition at 60 min, 1 µM is 37%.
For `O=C(O)COc1ccc(C(=O)c2cccs2)c(Cl)c1Cl` [Tienilic acid], on CYP2C9 (human, liver microsomes, probe FFA (1 µM), demethylation to nFFA, read-out: Reduction in FFA demethylation (percent inhibition by a selective inhibitor)), the inhibition at 60 min, 20 µM is less than 15%. Also, on CYP2C9 (FFA 1 μM), the “Reduction in FFA demethylation (percent inhibition by a selective inhibitor)” value is listed as 14%.
As for `NC(=O)N1c2ccccc2C=Cc2ccccc21` [carbamazepine], the “substrate capacity for BCRP” value at BCRP is on record as “did not show substrate capacity”. The “substrate capacity for P‐gp” value on P‐gp is recorded as “did not show substrate capacity”.
In the case of `CC[C@@H](C(N)=O)N1CCCC1=O` [levetiracetam], the “substrate capacity for BCRP” value at BCRP is reported as “did not show substrate capacity”. Also, the “substrate capacity for P‐gp” value at P‐gp is reported as “did not show substrate capacity”.
Consider `CCC1(c2ccccc2)C(=O)NC(=O)NC1=O` [phenobarbital], for which, at BCRP, the “substrate capacity for BCRP” value is reported as “did not show substrate capacity”.
`O=C1NC(=O)C(c2ccccc2)(c2ccccc2)N1` [phenytoin]: at BCRP, the “substrate capacity for BCRP” value is listed as “did not show substrate capacity”. Moreover, the “substrate capacity for P‐gp” value on P‐gp was “did not show substrate capacity”.
Regarding `CC1(C)O[C@@H]2[C@@H](CO[C@@]3(COS(N)(=O)=O)OC(C)(C)O[C@@H]23)O1` [topiramate], the “substrate capacity for BCRP” value on BCRP was “did not show substrate capacity”. The “substrate capacity for P‐gp” value on P‐gp is listed as “did not show substrate capacity”.
For the compound `CCCC(CCC)C(=O)O` [valproate], the “substrate capacity for BCRP” value at BCRP is recorded as “did not show substrate capacity”. In addition, at P‐gp, the “substrate capacity for P‐gp” value is given as “did not show substrate capacity”.
